The test system of experiment [1] is histamine induced leukocyte rolling in rat mesenteric venules. Nature of the experiment: Histamine induced leukocyte rolling and adherence in rat mesenteric venules (intravital microscopy). It counts as in vivo, rat (male Sprague-Dawley). Particulars: for effect on histamine induced leukocyte rolling: 10^-5 M histamine, FIG. 15; for Erythrocyte velocity / Leukocyte adherence / Leukocyte emigration / Venular diameter / Wall shear rate: with histamine 10^-5 M, Z, SLN 10 mg/Kg i.v., antibodies 2 mg/Kg i.v. Here is the method:
Surgical procedure. Sixty-four male Sprague-Dawley rats (200-250 g) were maintained on a purified laboratory diet and fasted for 24 hours prior to the experiment. The animals were initially anesthetized with pentobarbital (65 mg/kg body weight), then a tracheotomy was performed to facilitate breathing during the experiment. The right carotid artery was cannulated and systemic arterial pressure was measured with a Statham (Oxnard, Calif.) P23A pressure transducer connected to the carotid artery cannula. Systemic blood pressure and heart rate were continuously recorded with a Grass physiologic recorder (Grass Instruments, Massachusetts). The left jugular vein was also cannulated for drug administration and blood sample collection. After a midline abdominal incision a segment of the mid-jejunum was exteriorized. All exposed tissue was moistened with saline-soaked gauze to minimize evaporation and dehydration.
Intravital microscopy. Rats were placed in a supine position on an adjustable plexiglass microscope stage and the mesentery was draped over an optically clear coverslip that allowed for observation of a 2 cm^2 segment of tissue. The temperature of the pedestal was maintained at 37° C. with a constant temperature circulator (Fisher Scientific, model 80). A small rubber gasket (area=3.14 cm^2) was placed on the mesentery and the outside area of contact between the gasket and mesentery was sealed (to prevent leakage of superfusate from the ring) with a mixture of high vacuum grease (Dow Corning Corp., Midland, Mich.) and white petrolatum (E. Fougera & Co., Melville, N.Y.). Rectal and mesenteric temperatures were continuously monitored using an electrothermometer. The exposed bowel wall was covered with Saran Wrap (Dow Chemical Co., Indiana), and the mesenteric tissue within the gasket was suffused with warmed bicarbonate-buffered saline (BBS; pH 7.4) that was bubbled with a mixture of 5% O2; 5% CO2; 90% N2.
An inverted microscope (Nikon Optiphoto, Japan) with a ×40 objective lens (Nikon Optiphoto, Japan) and a ×10 eyepiece was used to observe the mesenteric microcirculation. The mesentery was transilluminated with a 12 V-100 W direct current-stabilized light source. A video camera (Hitachi, VK-C150, Japan) mounted on the microscope projected the image onto a color monitor (Sony, PVM-2030, Japan), and the images were recorded using a video cassette recorder (Panasonic, NV8950, Japan). A video time-date generator (Panasonic, WJ810, Japan) projected the time, date, and stopwatch function onto the monitor.
Single unbranched venules with diameters ranging between 25 μm and 35 μm and a length>150 μm were selected for study. Venular diameter (Dv) was measured either on- or off-line using a video image-shearing monitor (IPM, La Mesa, Calif.). The number of adherent leukocytes was determined off-line during playback of videotaped images. A leukocyte was considered to be adherent to venular endothelium if it remained stationary for a period equal to or greater than 30 seconds. Adherent cells were expressed as the number per 100 μm length of venule. The number of emigrated leukocytes was also determined off-line during playback of videotaped images. Ary interstitial leukocytes present in the mesentery at the onset of the experiment were subtracted from the total number of leukocytes that accumulated during the course of the experiment. Leukocyte emigration was expressed as the number per microscopic field (1.7×10^-2 mm^2) or 150 μm length of venule. Rolling leukocytes were defined as those white blood cells that moved at a velocity less than that of erythrocytes in the same stream. The flux of rolling leukocytes was determined as the number of rolling leukocytes which crossed a fixed point on the venule over a given period of time. Leukocyte rolling velocity was determined from the time required for a leukocyte to roll along a given distance of the venule.

In experiment [2] the test system is CVF-induced acute lung injury. Briefly: Cobra venom factor (CVF)-induced acute lung injury in the rat. It counts as in vivo. Here is the method:
Groups of rats were pretreated with either vehicle, SLN-OH (0.6 mg/Kg), or with SLX-OH (0.6 mg/Kg) 5 minutes prior to administration of either CVF or PBS. Each bar represents the mean of 6 animals and vertical lines represent the standard error of the mean.
Groups of rats were pretreated with either vehicle or Z at the indicated doses 5 minutes prior to administration of CVF or PBS. Each point represents the mean of 6 animals and vertical lines represent the standard error of the mean.
The intravenous injection of CVF produces intravascular complement activation which results in lung injury, defined as an increase in neutrophil accumulation within the lung, an increase in pulmonary vascular permeability and in lung hemorrhage. It is likely that intravascular complement activation results in the generation of a wide range of inflammatory mediators. Of particular relevance to the studies described here is generation of the split fifth complement component, C5a, which can stimulate the release of histamine from circulating basophils and tissue mast cells. […] The expression of selectins, including P-selectin, is a necessary first step in the process of leukocyte adherence to vascular endothelium.
Animals were dosed with different oligosaccharide preparations or phosphate buffered saline (PBS) five minutes before administration of cobra venom factor (20 units/Kg, i.v.). Included in this material was an aliquot of ^125 I-bovine serum albumin (0.5 μCi) and ^51 Cr labelled autologous red blood cells (0.5 μCi) for measuring plasma extravasation and hemorrhage respectively. Thirty minutes after administration of the cobra venom factor the animals were anesthetized with ketamine hydrochloride (10 mg/Kg) and exsanguinated via the posterior vena cava. The lung vasculature was then perfused through the right cardiac ventricle with 10 mL of PBS. The lungs were removed and the amount of radioactivity remaining within the tissue assessed with a gamma scintillation counter. Increased pulmonary vascular permeability was measured as the ratio of ^125 I in lung tissue compared with the amount present in 1 mL of venous blood obtained at the time of death. Lung hemorrhage was measured as the ratio of ^51 Cr in lung tissue compared with the amount present in 1 mL of venous blood obtained at the time of death. Neutrophil accumulation in lungs was determined by measuring the myeloperoxidase activity of lungs homogenized in PBS. Myeloperoxidase activity in lung supernatants was assayed by measuring the change in absorbance at 460 nm resulting from decomposition of H2 O2 in the presence of o-dianisidine

Experiment [3] has as its system IgG immune complex-induced acute lung injury. Nature of the experiment: IgG immune complex-induced acute lung injury in the rat. Particulars: for effect on IgG immune complex-induced neutrophil accumulation / lung injury: conclusion in words. It counts as in vivo, rat (male Long-Evans).
[4] abbreviates: dose range 0.15 to 1.5 mg/Kg (FIG. 17).
[5] abbreviates: i.v. at 2.5, 3.0 and 3.5 h (FIG. 18), P<0.05.

As to `CC(=O)NC1C(O)OC(CO)C(OC2OC(CO)C(O)C(OC3(C(=O)O)CC(O)C(NC(C)=O)C(C(O)C(O)CO)O3)C2O)C1O` (stereo not drawn) [SLN, reference compound], in experiment [1], the “effect on histamine induced leukocyte rolling” value is reported as “had no effect”, the Erythrocyte velocity amounted to 3.0 ± 0.5 mm/sec, the Leukocyte adherence is reported as 5.5 ± 1.4 per 100 μm and the Leukocyte emigration turned out to be 4.8 ± 2.8 per field. In experiment [1], this compound registered a Venular diameter of 31 ± 2 μm and a Wall shear rate of 495 ± 28 s⁻¹. In experiment [2] (in words, prior to CVF, 30 minutes), the “effect on CVF-induced permeability, hemorrhage, MPO / lung injury” value is “did not inhibit CVF-induced neutrophil accumulation or CVF-induced lung injury”. For the same compound, the “effect on IgG immune complex-induced neutrophil accumulation / lung injury” value in experiment [3] was “did not inhibit IgG immune complex induced lung injury”. Also, in experiment [3] (versus PBS treated animals), the effect on hemorrhage result is recorded as “no decrease in hemorrhage”, the “effect on lung content of MPO” value is given as “no decrease in lung content of MPO” and the “effect on vascular permeability” value is “no alteration in vascular permeability value”.

Consider `CCO[C@@H]1O[C@H](CO)[C@H](O)[C@H](O[C@@H]2O[C@H](CO)[C@@H](O[C@@H]3O[C@H](CO)[C@H](O)[C@H](O[C@]4(C(=O)O)C[C@H](O)[C@@H](NC(C)=O)[C@H]([C@H](O)[C@H](O)CO)O4)[C@H]3O)[C@H](O[C@@H]3O[C@@H](C)[C@@H](O)[C@@H](O)[C@@H]3O)[C@H]2NC(C)=O)[C@H]1O` [Z, Ethyl(sodium(5-acetamido-3,5-dideoxy-α-D-glycero-D-galacto-2-nonulopyanosylonate))-(2-3)-O-(β-D-galactopyranosyl)-(1-4)-O-((α-L-fucopyranosyl)-(1-3))-O-(2-acetamido-2-deoxy-β-D-glucopyranosyl)-(1-3)-O-β-D-galactopyranoside], for which, in experiment [1] (10 mg/Kg i.v.), the “effect on leukocyte adherence induced by 10^-5 M histamine” value is listed as “significantly attenuated”. Moreover, in experiment [1], the “effect on histamine induced leukocyte rolling” value was “inhibited leukocyte rolling”, the Erythrocyte velocity is reported as 2.1 ± 0.2 mm/sec, the Leukocyte adherence is on record as 2.3 ± 1.9 per 100 μm and the Leukocyte emigration was determined as 2.0 ± 1.2 per field. In addition, in experiment [1], the Venular diameter worked out at 29 ± 0.2 μm and the Wall shear rate came out at 355 ± 14 s⁻¹. Besides, in experiment [2] (setting [4]), the reduction of hemorrhage came to 47%, the “reduction of neutrophil MPO content” value came to 49% and the “reduction of permeability values” turned out to be 67%. Also, the “dose at which protective effects plateau” value in experiment [2] (rat, in vivo) amounted to 0.6 mg/kg. Moreover, the “effect on lung MPO content” value in experiment [3] (50 μg (FIG. 19)) is “did not significantly reduce MPO content”. Moreover, the “effect on lung MPO content” value in experiment [3] (100, 200 and 300 μg (FIG. 19)) is recorded as “significant reductions”. Moreover, in experiment [3] (all doses, 50-500 μg (FIG. 19)), the “effect on vascular permeability” value is “significant reductions in vascular permeability”. Besides, the “effect on IgG immune complex-induced neutrophil accumulation / lung injury” value in experiment [3] is given as “blocked IgG”. In experiment [3] (setting [5]), the “reduction in MPO content” value came to 27% and the reduction in permeability worked out at 20%. Further, the reduction in hemorrhage in experiment [3] (i.v. at 2.5, 3.0 and 3.5 h (FIG. 18), P=N.S.) was 21%. Besides, in experiment [3] (two highest doses (FIG. 19)), the effect on hemorrhage result is “statistically significant reductions in hemorrhage”.

The values are drawn from patent US5753631A, “Intercellular adhesion mediators” (Cytel Corporation, priority 1995, dated 1998).
